Test results: patent EP4417602A1, “SUBSTITUTED PYRAZOLE CARBOXAMIDES, SALTS THEREOF AND THEIR USE AS HERBICIDALLY ACTIVE SUBSTANCES” (Bayer AG, priority 2023, dated 2024)

What was measured:
[1] = test system: ALOMY; experiment: A. Herbicidal pre-emergence action on harmful plants (Tables A); type: in vivo, Alopecurus myosuroides
Description: (§1) Seeds of mono- and dicotyledonous weed plants were sown in plastic pots (double sowings with one species of mono- and one species of dicotyledonous weed plants per pot), in sandy loam, and covered with soil. The compounds according to the invention, formulated in the form of wettable powders (WP) or as emulsifiable concentrates (EC), were applied to the surface of the covering soil as aqueous suspension or emulsion, with the addition of 0.5% of an additive, at an application rate of 6001 of water per hectare (converted). Following treatment, the pots were placed in a greenhouse and kept under optimum growth conditions for the test plants. The visual grading of the damage to the test plants was carried out after ca. 3 weeks in comparison to untreated controls (herbicidal effect in percent (%): 100% effect = plants have died off, 0% effect = as control plants). Tables A1 to A12, below, show the effects of selected compounds of the general formula (I) according to table 1 on various harmful plants and an application rate corresponding to 1280 g/ha or below obtained by the experimental procedure mentioned above. Table A1: pre-emergence activity at 1280g/ha against ABUTH in %

[2] = test system: SETVI; experiment: as above; type: in vivo, Setaria viridis; conditions: visual grading after ca. 3 weeks vs untreated controls, 100% = plants have died off, 0% = as control plants
Description: as §1

[3] = test system: MATIN; experiment: as above; type: in vivo, Matricaria inodora
Description: as §1

[4] = test system: DIGSA; experiment: as above; type: in vivo, Digitaria sanguinalis
Description: as §1

[5] = test system: ECHCG; experiment: as above; type: in vivo, Echinochloa crus-galli; conditions: visual grading after ca. 3 weeks vs untreated controls, 100% = plants have died off, 0% = as control plants
Description: as §1

[6] = test system: STEME; experiment: as above; type: in vivo, Stellaria media; conditions: visual grading after ca. 3 weeks vs untreated controls, 100% = plants have died off, 0% = as control plants
Description: as §1

[7] = test system: POAAN; experiment: as above; type: in vivo, Poa annua
Description: as §1

[8] = test system: AMARE; experiment: as above; type: in vivo, Amaranthus retroflexus; conditions: application rate 1280 g/ha; visual grading after ca. 3 weeks vs untreated controls; 100% = plants have died off, 0% = as control plants
Description: as §1

[9] = test system: MATIN; experiment: B. Herbicidal post-emergence action on harmful plants (Tables B); type: in vivo, Matricaria inodora; conditions: application rate 1280 g/ha; Table B4a
Experimental: (§2) Seeds of mono- and dicotyledonous weed plants were placed in plastic pots in sandy loam soil (doubly sown with in each case one species of mono- or dicotyledonous weed plants per pot), covered with soil and cultivated in a greenhouse under controlled growth conditions. 2 to 3 weeks after sowing, the test plants were treated at the one-leaf stage. The compounds of the invention, formulated in the form of wettable powders (WP) or as emulsion concentrates (EC), were applied onto the green parts of the plants as aqueous suspension or emulsion with addition of 0.5% additive at a water application rate of 600 liters per hectare (converted). After the test plants had been kept in the greenhouse under optimum growth conditions for about 3 weeks, the activity of the preparations was rated visually in comparison to untreated controls. For example, 100% activity = the plants have died, 0% activity = like control plants. Tables B1 to B12, below, show the effects of selected compounds of the general formula (I) according to table 1 on various harmful plants and an application rate corresponding to 1280 g/ha or below obtained by the experimental procedure mentioned above. Table B1a: post-emergence activity at 1280g/ha against ABUTH in %

[10] = test system: LOLRI; experiment: A. Herbicidal pre-emergence action on harmful plants (Tables A); type: in vivo, Lolium rigidum; conditions: visual grading after ca. 3 weeks vs untreated controls, 100% = plants have died off, 0% = as control plants
Description: as §1

[11] = test system: POAAN; experiment: B. Herbicidal post-emergence action on harmful plants (Tables B); type: in vivo, Poa annua
Experimental: as §2

[12] = test system: VERPE; experiment: as above; type: in vivo, Veronica persica; conditions: application rate 1280 g/ha; Table B11a
Experimental: as §2

[13] = test system: ECHCG; experiment: as above; type: in vivo, Echinochloa crus-galli; conditions: application rate 1280 g/ha; Table B2a
Experimental: as §2

[14] = application rate 320 g/ha, Table A9b
[15] = application rate 1280 g/ha, Table A9a
[16] = application rate 1280 g/ha, visual grading after ca. 3 weeks vs untreated controls, 100% = plants have died off, 0% = as control plants
[17] = application rate 80 g/ha, Table A12c
[18] = application rate 320 g/ha, Table A12b
[19] = application rate 1280 g/ha, Table A12a
[20] = application rate 80 g/ha, Table A7c
[21] = application rate 320 g/ha, Table A7b
[22] = application rate 80 g/ha, Table B7c
[23] = application rate 320 g/ha, Table B7b
[24] = application rate 1280 g/ha, Table B7a

Row | Compound | pre-emergence activity against ALOMY [1, 14] | pre-emergence activity against ALOMY [1, 15] | pre-emergence activity against SETVI ([2]; application rate 320 g/ha) | pre-emergence activity against SETVI ([2]; application rate 1280 g/ha) | pre-emergence activity against MATIN [3, 16] | pre-emergence activity against DIGSA [4, 18] | pre-emergence activity against DIGSA [4, 19] | pre-emergence activity against ECHCG ([5]; application rate 80 g/ha) | pre-emergence activity against ECHCG ([5]; application rate 320 g/ha) | pre-emergence activity against ECHCG ([5]; application rate 1280 g/ha) | pre-emergence activity against STEME ([6]; application rate 1280 g/ha) | pre-emergence activity against POAAN [7, 20] | pre-emergence activity against POAAN [7, 21] | pre-emergence activity against POAAN [7, 16] | pre-emergence activity against AMARE [8] | pre-emergence activity against LOLRI ([10]; application rate 320 g/ha) | pre-emergence activity against LOLRI ([10]; application rate 1280 g/ha) | post-emergence activity against POAAN [11, 23] | post-emergence activity against POAAN [11, 24] | pre-emergence activity against STEME ([6]; application rate 320 g/ha) | further results
1 | COCc1nn(C)cc1C(=O)N1CCCC1Cc1c(F)cccc1F (racemic) [Example I-081] | 90% | 100% | 100% | 100% | 90% | 100% | 100% | 90% | 100% | 100% | 90% | 100% | 100% | 100% | 90% | 100% | 100% | 90% | 100% | – | pre-emergence activity against SETVI ([2]; application rate 80 g/ha): 90%; pre-emergence activity against MATIN ([3]; application rate 320 g/ha, visual grading after ca. 3 weeks vs untreated controls, 100% = plants have died off, 0% = as control plants): 90%; pre-emergence activity against DIGSA [4, 17]: 90%; post-emergence activity against MATIN [9]: 90%; pre-emergence activity against LOLRI ([10]; application rate 80 g/ha): 100%; post-emergence activity against POAAN [11, 22]: 90%
2 | CCOCc1c(C(=O)N2CCCC2Cc2ccccc2F)cnn1C (single isomer, unassigned) [Example I-142] | – | 90% | 90% | 100% | 90% | 90% | 100% | 90% | 90% | 100% | 90% | 90% | 100% | 100% | 90% | 90% | 100% | – | 90% | 90% | –
3 | COCc1nn(C(=O)NC2CC2)cc1C(=O)N1CCCC1Cc1ccccc1F (racemic) [Example I-036] | – | 90% | – | 90% | 90% | 90% | 100% | – | 90% | 100% | 90% | 90% | 90% | 100% | – | 90% | 90% | – | – | 90% | post-emergence activity against VERPE [12]: 90%
4 | COCc1nn(C)cc1C(=O)N1CCCC1Cc1ccc(Cl)cc1Cl (racemic) [Example I-016] | – | – | – | 90% | – | – | – | – | 90% | 100% | – | – | 100% | 100% | – | – | – | – | 90% | – | post-emergence activity against ECHCG [13]: 90%
5 | COCc1nn(C)cc1C(=O)N1CCCC1Cc1ncccc1F (racemic) [Example I-015] | – | 90% | – | 90% | – | – | – | – | 90% | 100% | – | 100% | 100% | 100% | – | – | 100% | 90% | 90% | – | post-emergence activity against VERPE [12]: 90%
6 | COCc1c(C(=O)N2CCCC2Cc2c(F)cccc2F)cnn1C (single isomer, unassigned) [Example I-126] | 90% | 90% | 90% | 100% | 90% | 100% | 100% | 90% | 90% | 90% | 90% | 90% | 90% | 100% | – | 90% | 100% | 90% | 90% | 90% | pre-emergence activity against SETVI ([2]; application rate 80 g/ha): 90%; pre-emergence activity against DIGSA [4, 17]: 90%; post-emergence activity against POAAN [11, 22]: 90%
7 | COCc1c(C(=O)N2CCCC2Cc2ccccc2C)cnn1C (single isomer, unassigned) [Example I-139] | – | – | – | 100% | – | 90% | 100% | – | – | 100% | – | 100% | 100% | 100% | 90% | – | 90% | – | – | – | –
8 | COCc1nn(C)cc1C(=O)N1CCCC1Cc1ccccc1OC (racemic) [Example I-014] | – | 90% | – | 90% | – | – | – | – | 90% | 100% | – | – | 100% | 100% | – | 90% | 100% | – | – | – | post-emergence activity against VERPE [12]: 90%
9 | COCc1c(C(=O)N2CCCC2Cc2ccc(F)cc2F)cnn1C (racemic) [Example I-158] | 100% | 100% | – | 90% | 90% | – | 100% | – | – | 100% | 90% | – | 100% | 100% | – | – | 90% | – | 100% | – | post-emergence activity against ECHCG [13]: 90%
10 | COCc1nn(C)c(Cl)c1C(=O)N1CCCC1Cc1ccccc1F (single isomer, unassigned) [Example I-058] | – | – | 90% | 100% | – | 90% | 100% | – | 90% | 100% | 90% | – | – | 100% | 100% | – | 90% | – | 90% | – | pre-emergence activity against MATIN ([3]; pre-emergence, 1280 g/ha, 504 h): 90%
